Laboratory results: patent publication US8399495B2, “Talarazole metabolites” (Stiefel Laboratories, Inc., priority 2006, dated 2013)

Assays:
[1] = Excretion of radioactivity (mass balance), mouse; assay type: in vivo; conditions: 0-48 h, oral 5 mg/kg; for % in Feces (percent of dose recovered, total radioactivity) / % in Urine (percent of dose recovered, total radioactivity): 5 mg/kg
Source text: (§1) Mouse, rat, dog and human were the species used for the safety evaluations of talarozole. More specifically, the disposition of ^14C-labeled talarozole was examined in mice, rats, dogs and humans after oral administration to provide information regarding the absorption, metabolism and excretion of talarozole.
(§2) Male and female CD-1 mice (19-29 g, n=3/sex/timepoint for blood sampling, n=3/sex for mass balance), Sprague Dawley rats (0.205-0.237 kg, n=3/sex/timepoint for blood sampling, n=3/sex for mass balance) and beagle dogs (7-12 kg, n=3) were given a single oral dose of ^14C-labeled talarozole in 20% hydroxyl propyl B-cyclodextrin at 5 mg/kg. Healthy human male volunteers (76.6-107.9 kg, n=5) were dosed with a single oral dose of 4 mg ^14C-labeled rambazole in ethanol. Blood samples were collected at selected timepoints after dosing and plasma was prepared. Urine and feces were collected for 2, 7 and 8 days. For the human study, up to 288 hours post-dose and semen samples were obtained 2 and 4 hours post-dose. Radioactivity in various matrices were measured by liquid scintillation counting (LSC). Select plasma, urine and fecal samples were subjected to metabolite radioprofiling and characterization, and in the human study, semen samples. Metabolite radioprofiling was accomplished using HPLC with fraction collection followed by solid scintillation counting (Packard TopCount—see representative HPLC run data below). Radioactivity peaks were integrated and the percent distribution of individual metabolites in each sample was determined. Metabolite characterization and identification were accomplished by LC/MS (Finnigan MAT LCQ in positive or negative ESI mode) in conjunction with an appropriate radioactive monitor (RAM). For all species, plasma, urine and fecal samples were pooled across animals and analyzed. Plasma was analyzed at several time-points out to 24 hours. Urine was analyzed over one time-interval (0-24 hours for mouse, 0-48 hours for rat, 0-72 hours for dog, and for in the human study, 0-12, 12-24, 24-48, 0-48 hours. Feces was analyzed over 2-3 time intervals (0-24 and 24-48 hours for mouse and rat; 0-24, 24-48, and 48-72 hours for male dogs; and 24-48, 48-72, and 72-96 hours for female dogs). In the human study, feces were analyzed for 0-48, 48-96, 96-144, 144-192, 192-288, 0-144, 144-288 and 0-288 hours. PK parameters for ^14C-labeled talarozole radioactivity was determined from the mean (mouse and rat) or individual (dog and human) plasma concentration versus time data. PK parameter values were determined by non-compartmental methods using WinNonlin™. • HPLC data for separations described in Example 1: • LC system: Waters 2695 Separations Module • Analytic column: C18 column, 4.6×150 mm, 3 μm • Flow rate: 1.0 mL/min • Mobile phase A: 2% HCOOH in H2O (pH 3.2) • Mobile phase B: CH3CN • Gradient: […]

[2] = Metabolite radioprofiling of plasma, urine and feces, mouse; assay type: in vivo; conditions: for Feces % Dose as the component / Plasma 0-24 h AUC (% Sample) / Plasma 0-24 h AUC of the radioactive component / Urine % Dose as the component: mouse (5 mg/kg) oral 14C-talarozole; for Urine % Dose as the component: urine 0-24 h; for Plasma 0-24 h AUC, total radioactivity: mouse (5 mg/kg)
Method: as §2

[3] = Excretion of radioactivity (mass balance), dog; assay type: in vivo; conditions: 0-192 h, oral 5 mg/kg; for % in Urine (percent of dose recovered, total radioactivity) / % in Feces (percent of dose recovered, total radioactivity): 5 mg/kg
Source text: as §1, §2

[4] = Excretion of radioactivity (mass balance), human; assay type: in vivo; conditions: male, 0-288, oral 4 mg
Source text: as §1, §2

[5] = Pharmacokinetics of radioactivity in plasma after oral 14C-labeled talarozole, dog; assay type: in vivo; conditions: single oral 5 mg/kg; for AUC0-t: 0-168 h
Source text: as §1
as §2, with “Metabolite characterization and identification were accomplished by LC/MS (Finnigan MAT LCQ in positive or negative ESI mode) in conjunction with an appropriate radioactive monitor (RAM).” left out

[6] = Metabolite radioprofiling of plasma, urine and feces, dog; assay type: in vivo; conditions: for Feces % Dose as the component / Plasma 0-24 h AUC (% Sample) / Plasma 0-24 h AUC of the radioactive component: dog (5 mg/kg) oral 14C-talarozole; for Plasma 0-24 h AUC, total radioactivity: dog (5 mg/kg)
Method: as §2

[7] = test system: vaginal keratinization induced by estrogenic treatment; experiment: Inhibition of vaginal keratinization induced by estrogenic treatment in ovariectomized rats; assay type: in vivo, rat; conditions: ovariectomized rats with estrogenic treatment; M4 oral during 3 days
Source text: Effects on Epithelial Differentiation in Rat Vagina: Inhibition of Vaginal Keratinization Induced by Estrogenic Treatment in Ovariectomized Rats by Oral Administration of Talarozole Metabolite M4
This animal model is based on the observation that retinoic acid (RA) suppresses the keratinization process in the stratified squamous epithelium of the vagina induced by estrogenic treatment in ovariectomized rats (Sietsema & DeLuca, 1982; Geiger & Weiser, 1989).

[8] = Pharmacokinetics of radioactivity in plasma after oral 14C-labeled talarozole, rat; assay type: in vivo; conditions: single oral 5 mg/kg; for AUC0-t: 0-48 h
Source text: as §1
as §2, with “Metabolite characterization and identification were accomplished by LC/MS (Finnigan MAT LCQ in positive or negative ESI mode) in conjunction with an appropriate radioactive monitor (RAM).” left out

[9] = Excretion of radioactivity (mass balance), rat; assay type: in vivo; conditions: 0-168 h, oral 5 mg/kg; for % in Feces (percent of dose recovered, total radioactivity) / % in Urine (percent of dose recovered, total radioactivity): 5 mg/kg
Source text: as §1, §2

[10] = Metabolite radioprofiling of plasma, urine, feces and semen, human; conditions: in vivo
Method: as §2

[11] = female, listed as 14C-Talarozole
[12] = female, listed as 14C-labeled talarozole
[13] = male, listed as 14C-labeled talarozole
[14] = listed as 14C-labeled talarozole

CCC(CC)[C@H](c1ccc(Nc2nc3ccccc3s2)cc1)n1cncn1 [Talarozole, (R)—N-[4-[2-ethyl-1-(1H-1,2,4-triazole-1-yl)butyl]phenyl]-2-benzothiazolamine]
% in Cage Rinse (percent of dose recovered) ([1]; female): 0.8% | Total % Recovered ([1]; female): 95.4% | % in Feces (percent of dose recovered, total radioactivity) [1, 11]: 91.59 F % | % in Urine (percent of dose recovered, total radioactivity) [1, 11]: 2.96 F % | % in Feces (percent of dose recovered, total radioactivity) [1, 12]: 91.6% | % in Cage Rinse (percent of dose recovered) ([1]; male): 4.4% | Total % Recovered ([1]; male): 91.4% | % in Feces (percent of dose recovered, total radioactivity) ([1]; male, listed as 14C-Talarozole): 82.70 M % | % in Urine (percent of dose recovered, total radioactivity) ([1]; male, listed as 14C-Talarozole): 4.27 M % | % in Feces (percent of dose recovered, total radioactivity) [1, 13]: 82.7% | Feces % Dose as the component ([2]; female): 7.04 % Dose | Plasma 0-24 h AUC (% Sample) ([2]; female): 21.48% | Plasma 0-24 h AUC of the radioactive component ([2]; female): 1420.2 ng·h/g | Urine % Dose as the component ([2]; female): No unchanged ^14C-labeled talarozole was detected | Feces % Dose as the component ([2]; male): 6.11 % Dose | Plasma 0-24 h AUC (% Sample) ([2]; male): 15.15% | Plasma 0-24 h AUC of the radioactive component ([2]; male): 1377.5 ng·h/g | Urine % Dose as the component ([2]; male): No unchanged ^14C-labeled talarozole was detected | Plasma 0-24 h AUC, total radioactivity ([2]; female): 66113.0 ng*hr/g F | Plasma 0-24 h AUC, total radioactivity ([2]; male): 9092.5 ng·h/g/M | % in Urine (percent of dose recovered, total radioactivity) ([3]; listed as 14C-Talarozole): 4.13 M % | % in Urine (percent of dose recovered, total radioactivity) [3, 14]: 4.1% | % in Cage Rinse (percent of dose recovered) ([3]; female): 0.5% | Total % Recovered ([3]; female): 92.4% | % in Feces (percent of dose recovered, total radioactivity) [3, 11]: 89.00 F % | % in Urine (percent of dose recovered, total radioactivity) [3, 11]: 2.89 F % | % in Feces (percent of dose recovered, total radioactivity) [3, 12]: 89.0% | % in Urine (percent of dose recovered, total radioactivity) [3, 12]: 2.9% | % in Cage Rinse (percent of dose recovered) ([3]; male): 0.8% | Total % Recovered ([3]; male): 93.6% | % in Feces (percent of dose recovered, total radioactivity) ([3]; male, listed as 14C-Talarozole): 88.66 M % | % in Feces (percent of dose recovered, total radioactivity) [3, 13]: 88.7% | Total % Recovered [4]: 87.7% | % in Feces (percent of dose recovered, total radioactivity) ([4]; listed as 14C-Talarozole): 80.36% | % in Urine (percent of dose recovered, total radioactivity) ([4]; listed as 14C-Talarozole): 7.29% | % in Feces (percent of dose recovered, total radioactivity) [4, 14]: 72.2% | % in Urine (percent of dose recovered, total radioactivity) [4, 14]: 7.3% | AUC0-∞ ([5]; female): 21902 hr-ng equiv/g | AUC0-t ([5]; female): 21388 hr-ng equiv/g | AUC0-∞ ([5]; male): 19970 hr-ng equiv/g | AUC0-t ([5]; male): 19555 hr-ng equiv/g | Feces % Dose as the component ([6]; female): 1.59 % Dose | Plasma 0-24 h AUC (% Sample) ([6]; female): 23.20% | Plasma 0-24 h AUC of the radioactive component ([6]; female): 4228.0 ng·h/g | Feces % Dose as the component ([6]; male): 1.22 % Dose | Plasma 0-24 h AUC (% Sample) ([6]; male): 24.24% | Plasma 0-24 h AUC of the radioactive component ([6]; male): 4132.9 ng·h/g | Plasma 0-24 h AUC, total radioactivity ([6]; female): 18225 ng*hr/g F | Plasma 0-24 h AUC, total radioactivity ([6]; male): 17047 ng·h/g/M | ED50-value for complete suppression (keratinization score=0) [7]: 1.0 mg/kg/day | AUC0-∞ ([8]; female): 7810 hr-ng equiv/g | AUC0-t ([8]; female): 7670 hr-ng equiv/g | AUC0-∞ ([8]; male): 6960 hr-ng equiv/g | AUC0-t ([8]; male): 6720 hr-ng equiv/g | % in Cage Rinse (percent of dose recovered) ([9]; female): 3.88% | Total % Recovered ([9]; female): 95.4% | % in Feces (percent of dose recovered, total radioactivity) [9, 11]: 77.57 F % | % in Urine (percent of dose recovered, total radioactivity) [9, 11]: 10.07 F % | % in Feces (percent of dose recovered, total radioactivity) [9, 12]: 77.5% | % in Urine (percent of dose recovered, total radioactivity) [9, 12]: 10.1% | % in Cage Rinse (percent of dose recovered) ([9]; male): 4.01% | Total % Recovered ([9]; male): 95.2% | % in Feces (percent of dose recovered, total radioactivity) ([9]; male, listed as 14C-Talarozole): 77.53 M % | % in Urine (percent of dose recovered, total radioactivity) ([9]; male, listed as 14C-Talarozole): 6.33 M % | % in Feces (percent of dose recovered, total radioactivity) [9, 13]: 77.5% | % in Urine (percent of dose recovered, total radioactivity) [9, 13]: 6.3% | Plasma 0-24 h AUC of the radioactive component ([10]; human, po, 0.067 mg/kg): 12.74 ng·h/g | Semen (radioactive component in semen samples) [10]: minor radioactive components | Urine % Dose as the component [10]: not found | Plasma 0-24 h AUC, total radioactivity ([10]; male, human, 0.067 mg/kg): 211.3 ng·h/g | Plasma 0-24 h AUC (% Sample), % of total plasma radioactivity ([10]; male, human, po, 0.067 mg/kg): 6.03%
